Target: T1, Sodium/glucose cotransporter 2 (Homo sapiens, UniProt P31639)
T1 sequence (P31639 whole entry): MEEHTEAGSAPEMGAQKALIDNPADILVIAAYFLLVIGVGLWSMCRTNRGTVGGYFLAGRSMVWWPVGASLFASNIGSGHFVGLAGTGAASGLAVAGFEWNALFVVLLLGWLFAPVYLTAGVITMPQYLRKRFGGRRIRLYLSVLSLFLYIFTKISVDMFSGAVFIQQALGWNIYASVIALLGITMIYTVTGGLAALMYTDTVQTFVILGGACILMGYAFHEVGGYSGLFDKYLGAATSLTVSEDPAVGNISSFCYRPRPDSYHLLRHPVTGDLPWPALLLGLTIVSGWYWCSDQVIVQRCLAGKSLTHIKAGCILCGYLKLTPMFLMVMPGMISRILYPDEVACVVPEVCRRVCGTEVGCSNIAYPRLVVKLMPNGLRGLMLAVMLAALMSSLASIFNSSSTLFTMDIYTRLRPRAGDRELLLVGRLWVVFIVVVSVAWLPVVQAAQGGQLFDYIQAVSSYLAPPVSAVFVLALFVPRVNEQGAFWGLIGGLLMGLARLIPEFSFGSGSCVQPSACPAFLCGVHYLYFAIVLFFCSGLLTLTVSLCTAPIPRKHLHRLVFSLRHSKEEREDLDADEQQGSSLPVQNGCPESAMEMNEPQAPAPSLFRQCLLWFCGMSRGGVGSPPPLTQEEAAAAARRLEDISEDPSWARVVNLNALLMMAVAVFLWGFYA
Experiment: Inhibition of human SGLT2

For `CCc1ccc(Cc2cc([C@@H]3O[C@H](CO)C(F)(F)[C@H](O)[C@H]3O)ccc2Cl)cc1`, the IC50 was 0.35 nM.
